Test results as given in the NIST ThermoML archive (doi:10.1021/je9001416).
Numbers after ± are expanded uncertainties.

Experiments:
[1] = xn = mol fraction of the nth substance listed; conditions: 303.15 K, 101 kPa, Liquid
[2] = refractive index (Na D-line) (dimensionless); xn = mol fraction of the nth substance listed; conditions: 303.15 K, 101 kPa, Liquid, Standard Abbe refractometry
[3] = excess molar enthalpy (molar enthalpy of mixing); xn = mol fraction of the nth substance listed; conditions: 303.15 K, 101 kPa, Liquid, Flow calorimetry

With `CC(C)CC(C)(C)C` [2,2,4-trimethylpentane] + CC(C)OC(C)C the mass density ([1]; x2 = 0) was 684.1 ± 0.31 kg/m3 and the refractive index ([2]; x2 = 0) was 1.3865 ± 0.00068.
With `CC(C)CC(C)(C)C` [2,2,4-trimethylpentane] + CCO the mass density ([1]; x2 = 0) was 684.1 ± 0.31 kg/m3, the mass density ([1]; x2 = 0.061) was 685.45 ± 0.31 kg/m3 and the mass density ([1]; x2 = 0.1201) was 687.2 ± 0.31 kg/m3. The mass density ([1]; x2 = 0.2363) was 691.81 ± 0.3 kg/m3, the mass density ([1]; x2 = 0.3467) was 697.27 ± 0.3 kg/m3 and the mass density ([1]; x2 = 0.453) was 703.74 ± 0.3 kg/m3. For the same molecule, the mass density ([1]; x2 = 0.5525) was 711.14 ± 0.29 kg/m3, the mass density ([1]; x2 = 0.6502) was 720.18 ± 0.28 kg/m3 and the mass density ([1]; x2 = 0.7431) was 730.88 ± 0.28 kg/m3. For the same molecule, the mass density ([1]; x2 = 0.8322) was 744.05 ± 0.27 kg/m3, the mass density ([1]; x2 = 0.9176) was 760.58 ± 0.25 kg/m3 and the mass density ([1]; x2 = 0.9599) was 770.78 ± 0.24 kg/m3. The refractive index ([2]; x2 = 0) was 1.3865 ± 0.00068, the refractive index ([2]; x2 = 0.0498) was 1.38633 ± 0.00068 and the refractive index ([2]; x2 = 0.0992) was 1.38632 ± 0.00068. It also gave a refractive index ([2]; x2 = 0.1997) of 1.38482 ± 0.00068, a refractive index ([2]; x2 = 0.2998) of 1.38404 ± 0.00068 and a refractive index ([2]; x2 = 0.4005) of 1.38109 ± 0.00068. It also gave a refractive index ([2]; x2 = 0.499) of 1.37746 ± 0.00068, a refractive index ([2]; x2 = 0.5999) of 1.37322 ± 0.00068 and a refractive index ([2]; x2 = 0.7) of 1.36851 ± 0.00068. The refractive index ([2]; x2 = 0.8001) was 1.36386 ± 0.00068, the refractive index ([2]; x2 = 0.8999) was 1.36145 ± 0.00068 and the refractive index ([2]; x2 = 0.9508) was 1.35789 ± 0.00068.
Molecule `CC(C)OC(C)C` [diisopropyl ether] + CC(C)CC(C)(C)C has an excess molar enthalpy ([3]; x1 = 0.0577) of 0.039 ± 0.0013 kJ/mol, an excess molar enthalpy ([3]; x1 = 0.1144) of 0.0744 ± 0.0019 kJ/mol and an excess molar enthalpy ([3]; x1 = 0.1702) of 0.106 ± 0.0026 kJ/mol. It also gave an excess molar enthalpy ([3]; x1 = 0.2252) of 0.132 ± 0.0031 kJ/mol, an excess molar enthalpy ([3]; x1 = 0.2793) of 0.154 ± 0.0036 kJ/mol and an excess molar enthalpy ([3]; x1 = 0.3326) of 0.171 ± 0.0039 kJ/mol. For the same molecule, the excess molar enthalpy ([3]; x1 = 0.385) was 0.185 ± 0.0042 kJ/mol, the excess molar enthalpy ([3]; x1 = 0.4367) was 0.193 ± 0.0044 kJ/mol and the excess molar enthalpy ([3]; x1 = 0.4875) was 0.197 ± 0.0045 kJ/mol. The excess molar enthalpy ([3]; x1 = 0.5376) was 0.198 ± 0.0045 kJ/mol, the excess molar enthalpy ([3]; x1 = 0.587) was 0.193 ± 0.0044 kJ/mol and the excess molar enthalpy ([3]; x1 = 0.6356) was 0.185 ± 0.0042 kJ/mol. It also gave an excess molar enthalpy ([3]; x1 = 0.6835) of 0.174 ± 0.004 kJ/mol, an excess molar enthalpy ([3]; x1 = 0.7307) of 0.159 ± 0.0037 kJ/mol and an excess molar enthalpy ([3]; x1 = 0.7772) of 0.141 ± 0.0033 kJ/mol. It also gave an excess molar enthalpy ([3]; x1 = 0.823) of 0.119 ± 0.0028 kJ/mol, an excess molar enthalpy ([3]; x1 = 0.8682) of 0.0934 ± 0.0023 kJ/mol and an excess molar enthalpy ([3]; x1 = 0.9128) of 0.0651 ± 0.0017 kJ/mol. For the same molecule, the excess molar enthalpy ([3]; x1 = 0.9567) was 0.0332 ± 0.0012 kJ/mol, the mass density ([1]; x1 = 0.0614) was 685.5 ± 0.31 kg/m3 and the mass density ([1]; x1 = 0.1204) was 686.92 ± 0.31 kg/m3. For the same molecule, the mass density ([1]; x1 = 0.2365) was 689.82 ± 0.31 kg/m3, the mass density ([1]; x1 = 0.3486) was 692.78 ± 0.3 kg/m3 and the mass density ([1]; x1 = 0.4525) was 695.6 ± 0.3 kg/m3. It also gave a mass density ([1]; x1 = 0.5542) of 698.54 ± 0.3 kg/m3, a mass density ([1]; x1 = 0.6497) of 701.45 ± 0.3 kg/m3 and a mass density ([1]; x1 = 0.7437) of 704.5 ± 0.29 kg/m3. It also gave a mass density ([1]; x1 = 0.8322) of 707.61 ± 0.29 kg/m3, a mass density ([1]; x1 = 0.9187) of 710.76 ± 0.29 kg/m3 and a mass density ([1]; x1 = 0.9598) of 712.33 ± 0.29 kg/m3. The mass density ([1]; x1 = 1) was 713.78 ± 0.29 kg/m3, the refractive index ([2]; x1 = 0.0614) was 1.38505 ± 0.00068 and the refractive index ([2]; x1 = 0.1204) was 1.38372 ± 0.00068. It also gave a refractive index ([2]; x1 = 0.2365) of 1.38115 ± 0.00068, a refractive index ([2]; x1 = 0.3486) of 1.37862 ± 0.00068 and a refractive index ([2]; x1 = 0.4525) of 1.37619 ± 0.00068. For the same molecule, the refractive index ([2]; x1 = 0.5542) was 1.37383 ± 0.00068, the refractive index ([2]; x1 = 0.6497) was 1.37172 ± 0.00068 and the refractive index ([2]; x1 = 0.7437) was 1.36963 ± 0.00068. It also gave a refractive index ([2]; x1 = 0.8322) of 1.36774 ± 0.00068, a refractive index ([2]; x1 = 0.9187) of 1.36596 ± 0.00068 and a refractive index ([2]; x1 = 0.9598) of 1.36512 ± 0.00068. The refractive index ([2]; x1 = 1) was 1.36425 ± 0.00068.
For `CC(C)OC(C)C` [diisopropyl ether] + CCO, the excess molar enthalpy ([3]; x1 = 0.0212) was 0.01 ± 0.00085 kJ/mol, the excess molar enthalpy ([3]; x1 = 0.0437) was 0.0219 ± 0.00097 kJ/mol and the excess molar enthalpy ([3]; x1 = 0.0676) was 0.0377 ± 0.0012 kJ/mol. It also gave an excess molar enthalpy ([3]; x1 = 0.0931) of 0.0571 ± 0.0016 kJ/mol, an excess molar enthalpy ([3]; x1 = 0.1204) of 0.0793 ± 0.002 kJ/mol and an excess molar enthalpy ([3]; x1 = 0.1497) of 0.105 ± 0.0026 kJ/mol. For the same molecule, the excess molar enthalpy ([3]; x1 = 0.1811) was 0.134 ± 0.0032 kJ/mol, the excess molar enthalpy ([3]; x1 = 0.215) was 0.167 ± 0.0038 kJ/mol and the excess molar enthalpy ([3]; x1 = 0.2516) was 0.202 ± 0.0046 kJ/mol. It also gave an excess molar enthalpy ([3]; x1 = 0.2912) of 0.24 ± 0.0054 kJ/mol, an excess molar enthalpy ([3]; x1 = 0.3343) of 0.277 ± 0.0061 kJ/mol and an excess molar enthalpy ([3]; x1 = 0.3813) of 0.318 ± 0.007 kJ/mol. It also gave an excess molar enthalpy ([3]; x1 = 0.4328) of 0.36 ± 0.0079 kJ/mol, an excess molar enthalpy ([3]; x1 = 0.4894) of 0.401 ± 0.0088 kJ/mol and an excess molar enthalpy ([3]; x1 = 0.5521) of 0.434 ± 0.0095 kJ/mol. For the same molecule, the excess molar enthalpy ([3]; x1 = 0.6217) was 0.46 ± 0.01 kJ/mol, the excess molar enthalpy ([3]; x1 = 0.6995) was 0.471 ± 0.01 kJ/mol and the excess molar enthalpy ([3]; x1 = 0.7871) was 0.441 ± 0.0096 kJ/mol. The excess molar enthalpy ([3]; x1 = 0.8864) was 0.327 ± 0.0072 kJ/mol, the mass density ([1]; x1 = 0.0495) was 776.55 ± 0.24 kg/m3 and the mass density ([1]; x1 = 0.0994) was 771.45 ± 0.24 kg/m3. It also gave a mass density ([1]; x1 = 0.2002) of 762.41 ± 0.25 kg/m3, a mass density ([1]; x1 = 0.2997) of 754.04 ± 0.26 kg/m3 and a mass density ([1]; x1 = 0.4003) of 746.63 ± 0.26 kg/m3. The mass density ([1]; x1 = 0.5012) was 740.01 ± 0.27 kg/m3, the mass density ([1]; x1 = 0.6012) was 734.1 ± 0.27 kg/m3 and the mass density ([1]; x1 = 0.7018) was 728.75 ± 0.28 kg/m3. The mass density ([1]; x1 = 0.804) was 723.6 ± 0.28 kg/m3, the mass density ([1]; x1 = 0.8996) was 718.96 ± 0.28 kg/m3 and the mass density ([1]; x1 = 0.9505) was 716.37 ± 0.29 kg/m3. It also gave a mass density ([1]; x1 = 1) of 713.78 ± 0.29 kg/m3, a refractive index ([2]; x1 = 0.0495) of 1.35854 ± 0.00068 and a refractive index ([2]; x1 = 0.0994) of 1.35989 ± 0.00068. For the same molecule, the refractive index ([2]; x1 = 0.2002) was 1.36147 ± 0.00068, the refractive index ([2]; x1 = 0.2997) was 1.36232 ± 0.00068 and the refractive index ([2]; x1 = 0.4003) was 1.36325 ± 0.00068. The refractive index ([2]; x1 = 0.5012) was 1.36309 ± 0.00068, the refractive index ([2]; x1 = 0.6012) was 1.36285 ± 0.00068 and the refractive index ([2]; x1 = 0.7018) was 1.36225 ± 0.00068. For the same molecule, the refractive index ([2]; x1 = 0.804) was 1.36246 ± 0.00068, the refractive index ([2]; x1 = 0.8996) was 1.36213 ± 0.00068 and the refractive index ([2]; x1 = 0.9505) was 1.36303 ± 0.00068. It also gave a refractive index ([2]; x1 = 1) of 1.36425 ± 0.00068.
`CCO` [ethanol] + CC(C)CC(C)(C)C showed a mass density ([1]; x1 = 1) of 781.99 ± 0.23 kg/m3 and a refractive index ([2]; x1 = 1) of 1.35733 ± 0.00068.
Work on `CCO` [ethanol] + CC(C)OC(C)C yielded a mass density ([1]; x2 = 0) of 781.99 ± 0.23 kg/m3 and a refractive index ([2]; x2 = 0) of 1.35733 ± 0.00068.
